Data set [1] has as its target T1, thymidylate synthase (Homo sapiens, UniProt P04818).
T1 construct: from tissue; host or cells: colorectal liver metastasis tissue from human patients
Nature of the data set: Modelle-001 Phase II clinical trial: TS inhibition in colorectal liver metastases (LC-MS/MS). The class given is in vivo. Particulars: iv, i.v. bolus, with 500 mg/m2 5-FU, mean. The source says:
The difference in a clinical setting in human patients between leucovorin and arfolitixorin has been analyzed by Taflin et al. in the Modelle 001 Phase 2 clinical study (TS-inhibition in Colorectal Liver Metastases Comparing Arfolitixorin and Calciumfolinate), the primary objective of which is to compare the TS-inhibtion capacity of the combination Arfolitixorin/5-FU in contrast to Calciumfolinate/5-FU in tumour, adjacent liver parenchyma and plasma in patients with liver metastases from colorectal cancer (Study Details | Modelle 001, TS-inhibition in Colorectal Liver Metastases Comparing Arfolitixorin and Calciumfolinate | ClinicalTrials.gov) (Taflin 2023).
(§1) The effectiveness of arfolitixorin vs. leucovorin in Thymidylate Synthase inhibition and in achieving high levels of [6R] 5,10-methylenetetrahydrofolate in metastatic tissue was investigated in the Modelle-001 Phase II clinical trial named "A Single-blinded, Randomized Phase II study investigating the effects of two doses of Arfolitixorin compared to Calcium folinate together with 5-fluorouracil on thymidylate synthase in tumour and adjacent hepatic tissue for patients with liver metastases from colorectal cancer". Link: Study Details I Modelle 001, TS-inhibition in Colorectal Liver Metastases Comparing Arfolitixorin and Calciumfolinate I Clinical-Trials.gov.
(§2) Aim: The Modelle-001 trial was designed to explore how a single intravenous bolus injection of Arfo as compared to LV in the form of calcium folinate, together with 5-FU affects the inhibition of TS and, further, to investigate how different forms and doses of folates affect folate concentration and polyglutamation in metastatic liver tissue.
Patients and Methods: Thirty adult patients with biopsy-verified colorectal cancer and liver metastases indicated for surgical removal were included at two Swedish University Hospitals. Both synchronous and metachronous liver metastases were accepted and most patients had received preoperative chemotherapy. […] Folate levels and TS inhibition were determined by LC-MS/MS.

For data set [2] the following is noted: cited from earlier work.
For data set [3] the following is noted: cited from earlier work. This is another data set of the same source.
Data set [4] in a line: [6R]-MTHF levels after arfolitixorin versus comparable leucovorin treatment. Type of data set: in vivo. To be noted: fold higher than leucovorin. The text has this: Leucovorin and I-leucovorin, both currently approved for treatment of gastrointestinal and other cancers, need to be metabolically activated to [6R]-MTHF to potentiate the effect of 5-FU. This dependency on cellular activation provides a hurdle for reaching sufficient levels of the active [6R]-MTHF. […] Secondly, the enzymatic activation is genetically regulated^16,18, and is therefore associated with variability between individuals and conditions. Arfolitoxirin is believed to be efficacious in a larger proportion of patients with less inter- and intra-individual variability. These differences may potentially turn out to be of significant importance for increased clinical efficacy in 5-FU based cancer treatment.

Data set [5] relates to solid tumors. Put plainly: Phase I/IIa study ISO-CC-005: tumour response to arfolitixorin doublet regimens (ARFIRI/ARFOX). Type of data set: in vivo, human. To be noted: 120 mg/m^2 arfolitixorin and 5-FU with either irinotecan or oxaliplatin (ARFIRI/ARFOX). The method, then: Arfolitixorin has been in development for a number of years and has been studied in several clinical studies.
The completion of the study was announced in January 2020. In total, 105 patients were included in the study. […] These patients had been treated with the "doublet" regimens comprising 120 mg/m^2 arfolitixorin and 5-fluorouracil (5-FU) with either irinotecan or oxaliplatin (ARFIRI/ARFOX). Out of the 31 patients, 17 were treated with an ARFOX regimen.

A short description of data set [6]: Modelle-001 Phase II clinical trial: folate concentration and polyglutamation in metastatic liver tissue (LC-MS/MS). Type of data set: in vivo, human. Particulars: compared to LV60; for ratio of poly/monoglutamated folates: after 5-FU administration.
Excerpt: as §1, §2
Patients and Methods: Thirty adult patients with biopsy-verified colorectal cancer and liver metastases indicated for surgical removal were included at two Swedish University Hospitals. Both synchronous and metachronous liver metastases were accepted and most patients had received preoperative chemotherapy. The first six patients received a reduced 5-FU dosage (250 mg/m2), and an independent safety committee gave permission to escalate to full dosage. Twenty-four patients were randomized to receive 500 mg/m2 5-FU either in combination with 60 mg/m2 LV (LV60, n = 12), 30 mg/m2 Arfo (A30, n = 6) or 120 mg/m2 Arfo (A120, n = 6) as a bolus regimen (a slow i.v. injection for three minutes). Metastatic tissue was collected 60 minutes after folate administration, then 5-FU was given. After a 60-minute break, metastatic tissue was again collected. Folate levels and TS inhibition were determined by LC-MS/MS.

For data set [7], the system named is advanced metastatic colorectal adenocarcinoma. Particulars: FOLFIRINOX (± cetuximab) supplemented with pyridoxine in high doses, cited from earlier work.

SMILES strings stand for the structures.

T1 sequence (P04818 2-313 limits assumed): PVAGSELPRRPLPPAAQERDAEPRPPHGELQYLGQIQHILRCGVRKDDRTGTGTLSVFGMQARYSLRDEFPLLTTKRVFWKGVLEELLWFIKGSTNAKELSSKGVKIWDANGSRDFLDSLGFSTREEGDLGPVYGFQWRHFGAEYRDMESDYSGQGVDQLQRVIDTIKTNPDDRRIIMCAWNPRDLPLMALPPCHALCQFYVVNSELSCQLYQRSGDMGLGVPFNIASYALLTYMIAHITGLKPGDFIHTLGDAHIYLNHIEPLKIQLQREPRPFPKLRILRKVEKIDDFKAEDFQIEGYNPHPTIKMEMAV

As for `Nc1nc2c(c(=O)[nH]1)N(C=O)C(CNc1ccc(C(=O)N[C@@H](CCC(=O)O)C(=O)O)cc1)CN2` (stereo partly shown) [Leucovorin, 5-formyl tetrahydrofolic acid, reference compound], the inhibition at 60 mg/m2 in data set [1] (60 mg/m2 Leucovorin (LV60)) was found to be 25.4%.

Turning to `Cc1ncc(CO)c(CO)c1O.Cl` [Pyridoxine hydrochloride], the stability in air result in data set [2] (air) is recorded as “stable in air”. Further, the stability to sunlight result in data set [2] (sunlight) was “slowly affected by sunlight”. Moreover, in data set [3], the “volume of water in which one gram dissolves” value was 5 mL.

Consider `Nc1nc2c(c(=O)[nH]1)N1CN(c3ccc(C(=O)N[C@@H](CCC(=O)O)C(=O)O)cc3)C[C@H]1CN2` [arfolitixorin, [6R]-5,10-methylenetetrahydrofolate], for which, in data set [4], the “[6R]-MTHF levels relative to comparable treatment with leucovorin” value was 3-4 times. Besides, the “best overall response rate (ORR)” value in data set [5] turned out to be 55%. For the same molecule, the inhibition at 30 mg/m2 in data set [1] (30 mg/m2 arfolitixorin (A30)) stood at 54.2%. For the same molecule, in data set [1] (120 mg/m2 arfolitixorin (A120)), the inhibition at 120 mg/m2 was 83.8%. Moreover, the “ratio of poly/monoglutamated folates” value is listed as “higher” in data set [6] (30 mg/m2 (A30), p = 0.045) and “higher” in data set [6] (120 mg/m2 (A120), p = 0.0049). In addition, the “5,10-methylenetetrahydrofolate (CH2THF) concentrations in metastases” value in data set [6] (30 mg/m2 (A30), after 5-FU treatment, p = 0.031) is reported as “higher”; in data set [6] (30 mg/m2 (A30), before 5-FU treatment, p = 0.037), “higher”; in data set [6] (120 mg/m2 (A120), after 5-FU treatment, p = 0.0023) it was “higher”; in data set [6] (120 mg/m2 (A120), before 5-FU treatment, p = 0.0003) it was “higher”.

Consider `Cc1ncc(CO)c(CO)c1O` [pyridoxine], for which, in data set [7], the “toxicity associated with the pyridoxine-modified protocols” value is recorded as “of the same magnitude as expected for the standard protocols”. The Antitumor activity result in data set [7] (five patients, no controls) is given as “high for several patients”.

(Values after patent EP4534088A1, “ARFOLITIXORIN FOR USE IN VITAMIN B6-ENHANCED, 5-FLUOROURACIL-BASED CHEMOTHERAPY OF CARCINOMAS” (priority 2023, dated 2025).)
